Measurements taken from US8927254B2 (priority 2010, dated 2015).
Converted amounts (≈) assume the structure as drawn. Where two headings read alike, the source gives them in different places.

Tests used:
[1] = tested on: P. furiosus trp deletion strains; format: cell-based, Pyrococcus furiosus
P. furiosus = assay: microbe, parasite or virus in culture; format: cell-based; settings: Pyrococcus furiosus

Structure (SMILES) | sensitivity to 5-FAA ([1]; trpAB deletion strain, tight tryptophan auxotroph) | sensitivity to 5-FAA ([1]; trpE or trpD deletion strains, leaky tryptophan auxotrophs) | sensitivity to 5-FAA ([1]; trpF (PF1707) pop-out deletion strain, leaky auxotroph) | MIC (P. furiosus) [mM]
Nc1ccc(F)cc1C(=O)O [5-FAA, 5-fluoroanthranilic acid] | not sensitive | not sensitive | not sensitive | 
O=C(O)c1[nH]c(=O)[nH]c(=O)c1F [5-FOA, 5-fluoroorotic acid] |  |  |  | 8 (≈ 1390 µg/mL)
CCC(C)(C)C(=O)O[C@H]1C[C@@H](C)C=C2C=C[C@H](C)[C@H](CC[C@@H]3C[C@@H](O)CC(=O)O3)[C@H]21 [simvastatin] |  |  |  | 0.01 to 0.024 (≈ 4.19 to 10 µg/mL)
